The results in this text go back to patent US20080076760A1, “2,3,4,5-TETRAHYDRO-1H-1,5-BENZODIAZEPINE DERIVATIVE AND MEDICINAL COMPOSITION” (priority 2004, published 2008).

Counter-ions that a name gives are not always drawn. Where only a bound is given, the exact number is not on record here.

Data set [1] has as its target T1, V1a receptor (Rattus norvegicus, UniProt P30560).
T1 construct: from tissue; host or cells: whole animal: awake male Sprague-Dawley rats
Kind of data set: V1a receptor antagonism in awake rat (oral administration), inhibition of AVP-induced vasopressure. The format is in vivo. The note with it: for AVP vasopressure inhibition effect after 8 hours since administration: 8 hours after administration; for maximum vasopressure inhibition rate: one third of the 3 mg/kg SR49059 dose, maximum after 2 to 6 hours since administration, 30 mU/kg AVP i.v. How it is done: One day before evaluation of test compounds, a cannula for blood pressure measurement was inserted into left carotid artery, and a cannula for arginine vasopressin (AVP) administration was inserted into left cervical vein. Blood pressure of artery cannula was measured via pressure transducer during rats were awake. During evaluation of test compounds, elevation breadth of mean blood pressure resulting from intravenous administration of 30 mU/kg of AVP was determined as a vasopressure control, in advance. After test compound was suspended in 0.5% methylcellulose solution and orally administered at 1 to 3 mg/kg, 30 mU/kg of AVP was intravenously administered at fixed time points from 0.5 to 8 hours, and vasopressure value was measured. [Vasopressure inhibition rate (%) at each measurement point after administration]=[(A−B)/A]×100 Wherein, control vasopressure=A, and vasopressure value at each measurement point=B

The test system of data set [2] is male ICR mice. Kind of data set: Acute toxicity study, oral, male ICR mice. The format is in vivo, mouse. The note with it: single administration in 0.5% methylcellulose, observed 6 days. How it is done:
Test compound suspended in 0.5% methylcellulose solution was orally administered to male ICR mice (body weight 25 to 35 g), which were separated into groups each having 5 mice, and body weight change and general symptom after 6 days since administration were observed. During the test period except for 17 to 20 hours before administration and after 2 hours since administration, mice were allowed to take feed and water ad libitum.

Data set [3] has as its target human vasopressin V1a receptor (Homo sapiens, UniProt P37288). Nature of the data set: Receptor binding study, [3H]AVP displacement on CHO cell membranes, human V1a. The note with it: [3H]AVP displacement, CHO cell membrane, 25° C., one hour; read-out: Human V1a Ki. A digest of the protocol:
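Membrane binding in 50 mM Tris-HCl pH 7.4 with MgCl2 and 0.1% BSA, incubated 1 h at 25° C. Bound ligand collected by rapid filtration on glass fiber filters, washed with ice-cold buffer, and counted for radioactivity. Nonspecific binding defined with 1 μM unlabeled AVP.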

Data set [4] addresses human vasopressin V2 receptor (Homo sapiens, UniProt P30518). Kind of data set: Receptor binding study, [3H]AVP displacement on CHO cell membranes, human V2. The note with it: [3H]AVP displacement, CHO cell membrane, 25° C., one hour; read-out: Human V2 Ki. An outline of the steps: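 Displacement format: test compound over a concentration range competes with constant [3H]AVP (0.5 nM to 1.0 nM) for human V2 sites on CHO membranes, one hour at room temperature (25 °C), Tris-HCl pH 7.4 buffer. Filtration then radioactivity counting; 1 μM non-radioactive AVP gives nonspecific binding.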

Chain of human vasopressin V1a receptor (P37288 whole entry): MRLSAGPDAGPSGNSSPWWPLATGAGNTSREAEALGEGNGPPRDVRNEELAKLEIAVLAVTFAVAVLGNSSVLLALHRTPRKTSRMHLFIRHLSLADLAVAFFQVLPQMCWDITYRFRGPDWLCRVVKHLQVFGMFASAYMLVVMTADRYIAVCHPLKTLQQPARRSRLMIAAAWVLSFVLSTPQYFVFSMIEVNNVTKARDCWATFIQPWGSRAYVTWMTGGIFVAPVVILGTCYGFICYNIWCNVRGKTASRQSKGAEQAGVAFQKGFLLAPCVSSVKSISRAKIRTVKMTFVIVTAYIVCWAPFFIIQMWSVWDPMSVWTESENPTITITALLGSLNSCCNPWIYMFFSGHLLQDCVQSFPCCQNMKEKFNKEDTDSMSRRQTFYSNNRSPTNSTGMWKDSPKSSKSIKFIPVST
T1 sequence (P30560 whole entry): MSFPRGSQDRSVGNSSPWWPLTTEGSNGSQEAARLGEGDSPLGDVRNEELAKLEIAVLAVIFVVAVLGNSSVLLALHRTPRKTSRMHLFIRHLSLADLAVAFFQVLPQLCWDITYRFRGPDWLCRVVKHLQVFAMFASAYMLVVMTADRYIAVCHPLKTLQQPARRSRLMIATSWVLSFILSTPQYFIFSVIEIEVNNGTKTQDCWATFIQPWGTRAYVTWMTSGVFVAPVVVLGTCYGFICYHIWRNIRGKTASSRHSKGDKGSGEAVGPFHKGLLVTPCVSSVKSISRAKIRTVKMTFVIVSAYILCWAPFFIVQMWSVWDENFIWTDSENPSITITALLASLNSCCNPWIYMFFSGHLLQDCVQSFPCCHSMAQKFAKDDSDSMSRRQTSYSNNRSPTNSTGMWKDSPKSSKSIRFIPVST
Chain of human vasopressin V2 receptor (P30518 whole entry): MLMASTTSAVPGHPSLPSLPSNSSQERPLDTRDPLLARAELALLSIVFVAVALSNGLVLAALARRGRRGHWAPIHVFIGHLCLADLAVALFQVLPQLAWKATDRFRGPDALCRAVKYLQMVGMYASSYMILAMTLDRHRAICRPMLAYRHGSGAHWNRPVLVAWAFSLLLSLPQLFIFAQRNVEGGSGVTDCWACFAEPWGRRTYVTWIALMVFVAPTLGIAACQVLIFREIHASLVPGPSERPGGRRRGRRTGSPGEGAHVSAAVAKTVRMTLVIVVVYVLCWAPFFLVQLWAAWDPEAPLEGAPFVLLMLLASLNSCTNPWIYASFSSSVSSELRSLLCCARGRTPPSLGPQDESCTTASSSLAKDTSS

As to `CCCCN1CCN(CCCOc2cc(C(=O)N3CC[C@H](C)Nc4ccccc43)ccc2-c2ccc3[nH]ccc3c2)CC1` [122 maleate], in data set [1], the “AVP vasopressure inhibition effect after 8 hours since administration” value is reported as “significant AVP vasopressure inhibition effect” and the “maximum vasopressure inhibition rate” value was found to be 67.3%. Also, the Toxicity expressing dose in data set [2] is greater than 300 mg/kg.
On to `CCCN(C)CCCCOc1cc(C(=O)N2CC[C@H](C)Nc3ccccc32)ccc1-c1ccc2[nH]ccc2c1` [117 fumarate], for which, in data set [1], the “AVP vasopressure inhibition effect after 8 hours since administration” value was “significant AVP vasopressure inhibition effect” and the “maximum vasopressure inhibition rate” value turned out to be 77.7%. In data set [2], this molecule came in with a Toxicity expressing dose greater than 300 mg/kg.
In the case of `CNc1ccc(-c2ccc(C(=O)N3CC[C@H](C)Nc4ccccc43)cc2OCCCN2C(=O)CNC2=O)cc1` [Example 106, 3-[3-[[4′-(methylamino)-4-[[(4S)-4-methyl-2,3,4,5-tetrahydro-1H-1,5-benzodiazepin-1-yl]carbonyl][1,1′-biphenyl]-2-yl]oxy]propyl]-2,4-imidazolidinedion], the results for the inhibitory constant (Ki) in data set [3] and in data set [4] were 0.14 nM and 2 nM, respectively.
The like results for `CNCCCOc1cc(C(=O)N2CC[C@H](C)Nc3ccccc32)ccc1-c1ccc2[nH]ccc2c1` [Example 51, N-[3-[2-(1H-indol-5-yl)-5-[[(4S)-4-methyl-2,3,4,5-tetrahydro-1H-1,5-benzodiazepin-1-yl]carbonyl]phenoxy]propyl]-N-methylamine] were, in that order, 0.079 nM and 12 nM.
The like results for `C[C@H]1CCN(C(=O)c2ccc(-c3ccc4[nH]ccc4c3)c(C(=O)OCCCN(C)C)c2)c2ccccc2N1` [Example 120, 3-(dimethylamino)propyl 2-(1H-indol-5-yl)-5-[[(4S)-4-methyl-2,3,4,5-tetrahydro-1H-1,5-benzodiazepin-1-yl]carbonyl]benzoate] were, in that order, 0.2 nM and 93 nM.
In the case of `CCCCN1CCN(CCCOc2cc(C(=O)N3CC[C@H](C)Nc4ccccc43)ccc2-c2ccc3[nH]ccc3c2)CC1` [Example 122, (4S)-1-[3-[3-(4-butyl-1-piperazinyl)propoxy]-4-(1H-indol-5-yl)benzoyl]-4-methyl-2,3,4,5-tetrahydro-1H-1,5-benzodiazepine], the values for the Ki in data set [3] and in data set [4] were 0.21 nM and 5.1 nM, respectively.
Take `CC1CCN(C(=O)c2ccc(-c3ccc4[nH]ccc4c3)c(OCCCCN)c2)c2ccccc2N1` (stereo not drawn) [Example 36, 4-[2-(1H-indol-5-yl)-5-[(4-methyl-2,3,4,5-tetrahydro-1H-1,5-benzodiazepin-1-yl)carbonyl]phenoxy]-1-butaneamine]: the inhibition constant (Ki) (in general, a measure of affinity in units of concentration, obtained from inhibition or displacement) came out at 0.23 nM in data set [3] and 11 nM in data set [4].
For `CC1CCN(C(=O)c2ccc(-c3ccc4[nH]ccc4c3)c(OCCCN)c2)c2ccccc2N1` (stereo not drawn) [Example 30, 3-[2-(1H-indol-5-yl)-5-[(4-methyl-2,3,4,5-tetrahydro-1H-1,5-benzodiazepin-1-yl)carbonyl]phenoxy]-1-propaneamine], the Ki in data set [3] stood at 0.091 nM; in data set [4], 17 nM.
For `CCCN(C)CCOc1cc(C(=O)N2CC[C@H](C)Nc3ccccc32)ccc1-c1ccc2[nH]ccc2c1` [Example 121, N-[2-[2-(1H-indol-5-yl)-5-[[(4S)-4-methyl-2,3,4,5-tetrahydro-1H-1,5-benzodiazepin-1-yl]carbonyl]phenoxy]ethyl]-N-methyl-1-propaneamine] the same measures were 0.14 nM and 10 nM.
Consider `C[C@H]1CCN(C(=O)c2ccc(-c3ccc4[nH]ccc4c3)c(OCCCN3CCC(C(N)=O)CC3)c2)c2ccccc2N1` [Example 83, 1-[3-[2-(1H-indol-5-yl)-5-[[(4S)-4-methyl-2,3,4,5-tetrahydro-1H-1,5-benzodiazepin-1-yl]carbonyl]phenoxy]propyl]-4-piperidine carboxamide], for which the inhibition constant Ki in data set [3] came to 0.13 nM; in data set [4], 17 nM.
For `CC1CCN(C(=O)c2ccc(-c3ccc4[nH]ccc4c3)c(OCCCCCN)c2)c2ccccc2N1` (stereo not drawn) [Example 37, 5-[2-(1H-indol-5-yl)-5-[(4-methyl-2,3,4,5-tetrahydro-1H-1,5-benzodiazepin-1-yl)carbonyl]phenoxy]-1-pentaneamine] the same measures were 0.24 nM and 4.3 nM.
The like results for `CCCN(C)CCCOc1cc(C(=O)N2CC[C@@H](C)Nc3ccccc32)ccc1-c1ccc(NC)cc1` [Example 130, N-methyl-2′-[3-[methyl(propyl)amino]propoxy]-4′-[[(4R)-4-methyl-2,3,4,5-tetrahydro-1H-1,5-benzodiazepin-1-yl]carbonyl][1,1′-biphenyl]-4-amine] were, in that order, 0.36 nM and 309 nM.
For `CC(C)N1CCN(CCCOc2cc(C(=O)N3CC[C@H](C)Nc4ccccc43)ccc2-c2ccc3[nH]ccc3c2)CC1` [Example 99, (4S)-1-[4-(1H-indol-5-yl)-3-[3-(4-isopropyl-1-piperazinyl)propoxy]benzoyl]-4-methyl-2,3,4,5-tetrahydro-1H-1,5-benzodiazepine] the same measures were 0.3 nM and 3.4 nM.
For the molecule `CC(=O)Nc1cc(C(=O)N2CC[C@H](C)Nc3ccccc32)ccc1-c1ccc2[nH]ccc2c1` [Example 17, N-[2-(1H-indol-5-yl)-5-[[(4S)-4-methyl-2,3,4,5-tetrahydro-1H-1,5-benzodiazepin-1-yl]carbonyl]phenyl]acetamide], the Ki in data set [3] amounted to 0.13 nM; in data set [4], 11 nM.
